Measured values: patent US20110113495A1, “SCREENING METHOD FOR AGENTS SUITABLE FOR PROPHYLAXIS AND THERAPY OF ALZHEIMER'S DISEASE (AD)” (priority 2008, published 2011)
Entries after “also recorded” stand apart in the source; their conditions may differ.

Legend:
[1] = test system: SH-SY5Y cells (human neuroblastoma cells); test: Toxicity test (MTT) with human neuroblastoma cells; assay type: cell-based; settings: 10 μM peptide or SEC fractions, 12 h
Description: SH—SY5Y cells were routinely cultured in DMEM/Ham'sF12 medium (PAA) supplemented with 10% (v/v) bovine calf serum, 2 mM glutamine, 0.1 mM non-essential amino acids and 0.5 mM sodium pyruvate in a 5% CO2 humidified atmosphere at 37° C.
Cells were plated at a density of 1.000 cells per well in 100 μl of fresh medium on 96-well plates. After 48 h medium was replaced by DMEM/Ham's F12 with 100 Uml^−1 penicillin and 10 μg streptomycin including 10 μM peptide, freshly dissolved in H2O containing 0.125% NH3 or fractions received by size exclusion chromatography. Probe and control were incubated for 12 h. Cell mediated reduction of 3-(4,5-dimethylthiazol-2-yl)-2,5-diphenyltetrazolium bromide (MTT) was used to monitor Aβ toxicity by addition of 10 μl of a 5 mgml^−1 MTT stock solution and incubation for further 1-2 h. Before measuring the absorbance of blue formazan at 562 nm using an automatic micro plate reader, cells were lysed with 50 μl DMSO for 10 minutes at room temperature.
The toxic effects of various oligomers on human neuroblastoma cells was determined by use of the MTT test allowing to quantify the toxicity.

[2] = test system: primary hippocampal rat neurons; test: Toxicity test (MultiTox-Fluor) with primary hippocampal rat neurons; assay type: cell-based; settings: normalized peptide concentration, 48 h
Description: Hippocampi from P0-P1 Wistar rat pups were used for primary neuronal dissociated cultures. Tissue was dissected in HBSS containing Ca^2+ and Mg^2+ and incubated with an enzyme solution containing 1 mM CaCl2, 0.5 mM EDTA Ph 8.0, 2 mg/ml Cystein and 200-250 units papain (Worthington) in BME for 60 min at 37° C. Supernatant was removed and cells were incubated in inactivation solution (2.5 mg/ml BSA, 2.5 mg/ml Trypsin inhibitor (both Sigma) and 10% FCS in BME) for 5 min at. RT. Tissue clumps were dissociated by repeated passage through 1 ml pipettes. Cells were centrifuged for 10 min at 12000 rpm, 4° C. and resuspended in Neurobasal A medium supplemented with 2% B27, 2 mM Glutamax and 0.2% Penicillin/Streptomycin (all Gibco). Neurons were cultured on glia cell feeder layers in 96 well plates with 5×10^3 cells in 100 μl medium. For feeder layer cultures rat P0-P1 cortices were prepared as described above and cultured at a density of 1×10^6 cells in a T75 flask for at least one week in BME medium supplemented with 10% FCS, 5 mM glucose, 1 mM Glutamax, 10 mM Hepes, 2.5 μg/ml insulin, 0.2% Penicillin/Streptomycin. Cells were trypsinized and 2×10^3 cells per well were seeded in 96 wells plates four days before neurons were added.
After ten days of incubation neuronal cultures were treated with Aβ1-42 freshly dissolved in H2O or with SEC fractions for another 48 h. Neuronal viability was detected by using MultiTox-Fluor Multiplex Cytotxicity assay (Promega) as recommended by the producer.
Cells treated with buffer only were set as non-toxic.

[3] = test system: acute hippocampal rat brain sections or slices (area CA1 fEPSPs); test: Long term potentiation (LTP) of acute hippocampal rat brain slices; settings: slices incubated with 500 nM peptide 20 min prior to tetanisation
Description: Hippocampal slices were prepared from 3-6 week old Wistar rats. Rats were decapitated under ether anesthesia. The brain was removed quickly and sectioned into 300 μm thick slices using a vibroslicer (Leica). The slices were maintained at room temperature in a holding chamber containing oxygenated artificial cerebrospinal fluid (ACSF; 129 mM NaCl, 1 mM NaH2PO4, 10 mM Glucose, 1.8 mM MgSO4, 1.6 mM CaCl2, 3 mM KCl, NaHCO3 21 mM). (Ringer: 119 mM NaCl, 1 mM NaH2PO4, 10 mM Glucose, 1.3 mM MgSO4, 2.5 mM CaCl2, 2.5 mM KCl, NaHCO3 26 mM) Ph 7.2-7.4 Osmolarität 0.28-0.31 Osmol/kg.
After at least 1 h equilibration, slices were transferred into submerged recording chamber and continuously perfuse with room temperature oxygenated ACSF at 3 ml/min throughout the experiments. […] Peptide was not washed during the experiment.
Field excitatory postsynaptic potentials (fEPSPs) were recorded of stratum radiatum area CA1 evoked by Schaffer collateral stimulation with ACSF filled electrodes. Two independent pathways were measured whereas two stimulating electrodes lay parallel to each other.
Baseline responses were collected using test pulses that yield 30-40% of the maximal fEPSP slope. LTP was induced by Theta brust stimulation (TBS) of one of the two pathways. The inter-theta burst stimulation interval was 20 sec and four TBSs were applied to induce LTP. TBS consisted of 10 bursts delivered at 5 Hz. Each burst consisted of four pulses delivered at 100 Hz with a pulse-duration of 0.2 msec. (Evers M., Salmen B., Schachner M., 2002 J. Neuroscience)
The amount of LTP was described as percent changes of (EPSP slopes after TBS normalized to baseline values with an additional subtraction of the second, unstimulated pathway. Slopes were analysed using IGOR program.
In order to assay whether Aβ oligomers show an effect on learning and commemoration LTP (long term potentiation) of acute hippocampal sections of rat brains was determined. Several recent publications report on the inhibition of LTP by Aβ1-42. This effect can be equated with cognitive deficiencies observed for AD patients. In order to further improve these performance tests and to minimize possible side effects of the peptides on the general network plasticity of the sections, two independent neuronal pathways were assayed. Whereas the first pathway was stimulated for inducing LTP, the second one was assayed unstimulated as a control. It could be confirmed that Aβ peptides inhibit LTP.

[4] = Size exclusion chromatography of freshly dissolved Aβ1-42 peptides (oligomer size distribution); assay type: physicochemical; settings: freshly dissolved peptide 1 mg/ml, Superose 12 column, 1×PBS
Description: In order to discriminate the various oligomeric forms of Aβ wildtype and mutant peptides, a size exclusion chromatography was performed. Therefore, a Superose 12 column (Amersham Bioscience) was equilibrated with 1×PBS (137 mM NaCl, 2.7 mM KCl, 10 mM Na2HPO4, 2 mM KH2PO4) under conditions recommended by the manufacturer. Thereafter 1 mg peptide was monomerized with 50 μl concentrated formic acid and evaporated. Peptides were solubilized in H2O containing 0.125% NH3 to a final concentration of 1 mg/ml.
A volume of 500 μl was centrifuged at maximal speed for 10 minutes and loaded on the column with a flow rate of 0.5 ml/min. For determination of the peptide concentration, fractions were tested with Bradford-, BCA-assay and dot blot analysis. The collected fractions were immediately applied for further analysis.
In this study it was investigated to what extent the GxxxG motif effects the aggregation of Aβ1-42 peptides. Aβ1-42 peptides and the oligomers were separated by use of SEC.

| Substance | toxic effect (MTT) [1] | toxic effect (Multi-tox) [2] | LTP induction after theta burst stimulation [3] | oligomer size distribution / aggregation by SEC [4] | oligomer size distribution / aggregation by SEC ([4]; listed as Aβ1-42) | LTP induction after theta burst stimulation ([3]; listed as tetramers of the Aβ1-42G33A peptide) | oligomer size distribution / aggregation by SEC ([4]; listed as G33A) |
| --- | --- | --- | --- | --- | --- | --- | --- |
| Aβ1-42 tetramers: tetramers (SEC fraction) of wild type Aβ1-42 peptide [reference compound] | highest toxicity | highest toxicity | cause a measurable loss of cognitive performance |  |  |  |  |
| Aβ1-42 wt: wild type amyloid beta 1-42 peptide containing the G29xxxG33 motif [reference compound] | strong toxic effect | strong toxic effect | no LTP is induced | immediately aggregates to 4- and 6-mers | 4- to 6mers |  |  |
| Aβ1-42G29/33A: Aβ1-42 double mutant G29/33A | only weak toxicity | weak toxicity |  | Most of the oligomers have a low MW, but large amounts of oligomers having a higher MW are already visible |  |  |  |
| Aβ1-42G29A: Aβ1-42 peptide with mutation at position 29 (G to A) | strong toxic effect | strong toxic effect |  |  |  |  |  |
| Aβ1-42G33A tetramers: tetramers of the Aβ1-42G33A peptide | no toxic effects were observed |  | correspond to the results obtained for Aβ1-42G331 |  |  | LTP could be induced |  |
| Aβ1-42G33A: Aβ1-42 peptide with glycine at position 33 replaced by alanine |  |  |  | shift to oligomers with a higher MW |  |  | minor amounts of tetramers are still detectable |
| Aβ1-42G331: Aβ1-42 peptide with glycine at position 33 replaced by isoleucine |  |  | induced LTP shows the same value as the control; also recorded: LTP could be induced |  |  |  |  |
